Key:
GST-ALK5 = molecular target: T1, GST-ALK5 (Homo sapiens, UniProt P36897); test: In-vitro (enzyme) kinase assay, 384-well flashplate (Example 36); format: biochemical; details: GST-ALK5, GST-SMAD2 substrate, 3 mM ATP, 30° C., 45 min; read-out: TβR activity (Example 36)
T1 sequence (P36897 34-503): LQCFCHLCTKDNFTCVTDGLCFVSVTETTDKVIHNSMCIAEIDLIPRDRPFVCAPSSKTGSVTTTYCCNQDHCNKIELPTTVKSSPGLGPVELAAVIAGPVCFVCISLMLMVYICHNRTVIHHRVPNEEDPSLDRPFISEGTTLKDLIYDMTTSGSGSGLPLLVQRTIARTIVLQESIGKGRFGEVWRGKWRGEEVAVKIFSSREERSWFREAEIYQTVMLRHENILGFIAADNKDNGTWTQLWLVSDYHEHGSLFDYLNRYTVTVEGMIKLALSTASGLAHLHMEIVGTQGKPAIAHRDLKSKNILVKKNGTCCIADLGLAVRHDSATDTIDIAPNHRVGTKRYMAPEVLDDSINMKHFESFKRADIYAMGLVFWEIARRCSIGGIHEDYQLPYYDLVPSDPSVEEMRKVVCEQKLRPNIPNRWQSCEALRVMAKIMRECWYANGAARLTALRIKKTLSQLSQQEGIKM
Description: In-vitro (Enzyme) Assay for Determination of the Efficacy of Inhibitors of the Inhibition of TGF-beta-Mediated Effects
The kinase assay was carried out as 384-well flashplate assay. 31.2 nM of GST-ALK5, 439 nM of GST-SMAD2 and 3 mM of ATP (with 0.3 μCi of ^33P-ATP/well) were incubated in a total volume of 35 μl (20 mM of HEPES, 10 mM of MgCl2, 5 mM of MnCl2, 1 mM of DTT, 0.1 of BSA, pH 7.4) without or with test substance (5-10 concentrations) at 30° C. for 45 min. The reaction was stopped using 25 μl of 200 mM EDTA solution, filtered with suction at room temperature after 30 min, and the wells were washed with 3 times 100 μl of 0.9% NaCl solution. Radioactivity was measured in the TopCount. The IC50 values were calculated using RS1.

[1] = tested on: TGF-beta-induced phosphorylation of Smad2 and Smad3 in Mv1-Lu cells; test: Inhibition of Smad2/3 phosphorylation in Mv1Lu cells (Example 35A); format: cell-based, mink Mustela vison; details: Neogale vison, Mv1-Lu cells, TGF-beta 1 5 ng/ml, phospho-Smad2/3 ELISA, read-out: TβR activity (Example 35A)
Description: Inhibition of Smad2/3 Phosphorylation in Mv1Lu Cells by TGF-bta Receptor I Kinase Inhibitors
This assay was used to determine the inhibitory potency of compounds on TGF-beta-induced phosphorylation of Smad2 (Ser465/467) and Smad3 (Ser423/425). Mv1-Lu cells (lung epithelial cell line from mink Mustela vison; ATCC number: CCL-64) were seeded in DMEM (Invitrogen) supplemented with 10% fetal bovine serum (Pan Biotech) at a defined cell density in 24-well or 96-well plates (24-well plate: 1.5×10^5 cells per well; 96-well plate: 4×10^4 cells per well). Cell cultures were incubated in DMEM at 37° C. and 10% CO2. On the next day, the medium was replaced and cells were serum-starved for 16-20 hours. The following day, serial dilutions of compounds were added to the wells, pre-incubated for 1.5 hrs before recombinant TGF-beta 1 ligand (final concentration 5 ng/ml; R&D systems) was added. After one hour of ligand stimulation, lysates were prepared and analyzed using an enzyme-linked immunosorbent assay kit (PathScan Phospho-Smad2 Kit, Cell Signaling Technologies). The ELISA detects phosphorylated Smad2 as well as phosphorylated Smad3 with the phospho-specific antibody. TGF-beta stimulated cells and unstimulated cells served as positive and negative controls (100% and background control). The concentration of the vehicle DMSO was kept constant at 0.2% (v/v) in all wells. Dose-response relationships were fitted using curve fitting algorithms of the RS1 statistics software package (Brooks Automation Inc. RS/1—Statistical Tools Handbook. Release 6.2) to determine the concentration at which half-maximal inhibition (IC50) of Smad2/3 phosphorylation was achieved.

COCCN1CCC(n2cc(-c3cncc(-c4cc(-c5ccccc5F)nc5ncccc45)c3)cn2)CC1 [compound 52, 2-(2-Fluoro-phenyl)-4-(5-{1-[1-(2-methoxy-ethyl)-piperidin-4-yl]-1H-pyrazol-4-yl}-pyridin-3-yl)-[1,8]naphthyridine] gave an IC50 (GST-ALK5) of under 0.1 µM and an IC50 [1] of under 0.1 µM.
OCCN1CCC(n2cc(-c3cncc(-c4cc(-c5ccccc5F)nc5ncccc45)c3)cn2)CC1 [compound 53, 2-[4-(4-{5-[2-(2-Fluoro-phenyl)-[1,8]naphthyridin-4-yl]-pyridin-3-yl}-pyrazol-1-yl)-piperidin-1-yl]-ethanol] gave an IC50 (GST-ALK5) of under 0.1 µM and an IC50 [1] of under 0.1 µM.
CN1CCN(c2nc(-c3cncc(-c4cc(-c5ccccc5F)nc5ncccc45)c3)no2)CC1 [compound 54, 2-(2-Fluoro-phenyl)-4-{5-[5-(4-methyl-piperazin-1-yl)-[1,2,4]oxadiazol-3-yl]-pyridin-3-yl}-[1,8]naphthyridine] showed an IC50 (GST-ALK5) of under 0.1 µM and an IC50 [1] of 1 to 10 µM.
In the case of CN1CCC(n2cc(-c3cncc(-c4cc(-c5ccccc5F)nc5ncccc45)c3)nn2)CC1 [compound 55, 2-(2-Fluoro-phenyl)-4-{5-[1-(1-methyl-piperidin-4-yl)-1H-[1,2,3]triazol-4-yl]-pyridin-3-yl}-[1,8]naphthyridine], the IC50 (GST-ALK5) is reported as under 0.1 µM and the IC50 [1] is reported as under 0.1 µM.
With CN1CCN(c2nc(-c3cncc(-c4cc(-c5cc(Cl)ccc5F)nc5ncccc45)c3)no2)CC1 [compound 56, 2-(5-chloro-2-fluoro-phenyl)-4-{5-[5-(4-methyl-piperazin-1-yl)-[1,2,4]oxadiazol-3-yl]-pyridin-3-yl}-[1,8]naphthyridine] the IC50 (GST-ALK5) was under 0.1 µM and the IC50 [1] was 0.1 to 1 µM.
With CN1CCC(n2cc(-c3cncc(-c4cc(-c5cc(Cl)ccc5F)nc5ncccc45)c3)nn2)CC1 [compound 57, 2-(5-Chloro-2-fluoro-phenyl)-4-{5-[1-(1-methyl-piperidin-4-yl)-1H-[1,2,3]triazol-4-yl]-pyridin-3-yl}-[1,8]naphthyridine] the IC50 (GST-ALK5) was under 0.1 µM and the IC50 [1] was under 0.1 µM.
With CN1CCC(n2cc(-c3cncc(-c4cc(-c5cc(Cl)ccc5F)nc5ncccc45)c3)cn2)C1 (stereo not drawn) [compound 58, 2-(5-Chloro-2-fluoro-phenyl)-4-{5-[1-(1-methyl-pyrrolidin-3-yl)-1H-pyrazol-4-yl]-pyridin-3-yl}-[1,8]naphthyridine] the IC50 (GST-ALK5) was under 0.1 µM and the IC50 [1] was under 0.1 µM.
For CN1CCC(n2cc(-c3cncc(-c4cc(-c5ccccc5F)nc5ncccc45)c3)cn2)C1 (stereo not drawn) [compound 59, 2-(2-Fluoro-phenyl)-4-{5-[1-(1-methyl-pyrrolidin-3-yl)-1H-pyrazol-4-yl]-pyridin-3-yl}-[1,8]naphthyridine], the IC50 (GST-ALK5) was under 0.1 µM and the IC50 [1] was under 0.1 µM.
CN1CCC(c2nc(-c3cncc(-c4cc(-c5cc(Cl)ccc5F)nc5ncccc45)c3)no2)CC1 [compound 61, 2-(5-Chloro-2-fluoro-phenyl)-4-{5-[5-(1-methyl-piperidin-4-yl)-[1,2,4]oxadiazol-3-yl]-pyridin-3-yl}-[1,8]naphthyridine] showed an IC50 (GST-ALK5) of under 0.1 µM and an IC50 [1] of 0.1 to 1 µM.
CN1CCC(n2cc(-c3cncc(-c4cc(-c5cc(F)ccc5F)nc5ncccc45)n3)cn2)CC1 [compound 62, 2-(2,5-Difluoro-phenyl)-4-{6-[1-(1-methyl-piperidin-4-yl)-1H-pyrazol-4-yl]-pyrazin-2-yl}-[1,8]naphthyridine] gave an IC50 (GST-ALK5) of under 0.1 µM and an IC50 [1] of under 0.1 µM.
In the case of CN1CCC(n2cc(-c3cncc(-c4cc(-c5ccccc5)nc5ncccc45)c3)cn2)CC1 [compound 63, 4-{5-[1-(1-Methyl-piperidin-4-yl)-1H-pyrazol-4-yl]-pyridin-3-yl}-2-phenyl-[1,8]naphthyridine], the IC50 (GST-ALK5) is reported as under 0.1 µM and the IC50 [1] is reported as 0.1 to 1 µM.
Compound CN1CC[C@@H](n2cc(-c3cncc(-c4cc(-c5ccccc5F)nc5ncccc45)c3)cn2)C1 [compound 64, 2-(2-Fluoro-phenyl)-4-{5-[1-((R)-1-methyl-pyrrolidin-3-yl)-1H-pyrazol-4-yl]-pyridin-3-yl}-[1,8]naphthyridine] has an IC50 (GST-ALK5) of under 0.1 µM and an IC50 [1] of under 0.1 µM.
Compound CN1CC[C@@H](n2cc(-c3cncc(-c4cc(-c5cc(Cl)ccc5F)nc5ncccc45)c3)cn2)C1 [compound 65, 2-(5-Chloro-2-fluoro-phenyl)-4-{5-[1-((R)-1-methyl-pyrrolidin-3-yl)-1H-pyrazol-4-yl]-pyridin-3-yl}-[1,8]naphthyridine] has an IC50 (GST-ALK5) of under 0.1 µM and an IC50 [1] of under 0.1 µM.
Work on CN1CC[C@H](n2cc(-c3cncc(-c4cc(-c5cc(Cl)ccc5F)nc5ncccc45)c3)cn2)C1 [compound 68, 2-(5-Chloro-2-fluoro-phenyl)-4-{5-[1-((S)-1-methyl-pyrrolidin-3-yl)-1H-pyrazol-4-yl]-pyridin-3-yl}-[1,8]naphthyridine] yielded an IC50 (GST-ALK5) of under 0.1 µM and an IC50 [1] of under 0.1 µM.
CN1CC[C@H](n2cc(-c3cncc(-c4cc(-c5ccccc5F)nc5ncccc45)c3)cn2)C1 [compound 69, 2-(2-Fluoro-phenyl)-4-{5-[1-((S)-1-methyl-pyrrolidin-3-yl)-1H-pyrazol-4-yl]-pyridin-3-yl}-[1,8]naphthyridine] was tested, and the IC50 (GST-ALK5) was under 0.1 µM and the IC50 [1] was under 0.1 µM.
For Fc1ccccc1-c1cc(-c2cncc(-c3nccc(N4CCNCC4)n3)c2)c2cccnc2n1 [compound 71, 2-(2-fluoro-phenyl)-4-[5-(4-piperazin-1-yl-pyrimidin-2-yl)-pyridin-3-yl]-[1,8]naphthyridine], the IC50 (GST-ALK5) was under 0.1 µM and the IC50 [1] was 1 to 10 µM.
Work on Nc1ncc(-c2cc(-c3ccccc3F)nc3ncccc23)c2ccncc12 [compound 72, 4-[2-(2-fluoro-phenyl)-[1,8]naphthyridin-4-yl]-[2,7]naphthyridin-1-ylamine] yielded an IC50 (GST-ALK5) of under 0.1 µM and an IC50 [1] of 0.1 to 1 µM.
With Nc1ncc(-c2cc(-c3cc(F)ccc3F)nc3ncccc23)c2ccncc12 [compound 73, 4-[2-(2,5-Difluoro-phenyl)-[1,8]naphthyridin-4-yl]-[2,7]naphthyridin-1-ylamine] the IC50 (GST-ALK5) was under 0.1 µM and the IC50 [1] was under 0.1 µM.
CC(=O)Nc1ncc(-c2cc(-c3ccccc3F)nc3ncccc23)c2ccncc12 [compound 74, N-{4-[2-(2-fluoro-phenyl)-[1,8]naphthyridin-4-yl]-[2,7]naphthyridin-1-yl}-acetamide] gave an IC50 (GST-ALK5) of 0.1 to 1 µM and an IC50 [1] of 1 to 10 µM.
Fc1ccccc1-c1cc(-c2cncc(-c3cnn(CCn4cccn4)c3)c2)c2cccnc2n1 [compound 77, 2-(2-Fluoro-phenyl)-4-{5-[1-(2-pyrazol-1-yl-ethyl)-1H-pyrazol-4-yl]-pyridin-3-yl}-[1,8]naphthyridine] gave an IC50 (GST-ALK5) of 0.1 to 1 µM and an IC50 [1] of 1 to 10 µM.
NS(=O)(=O)c1ccc(-c2cncc(-c3cc(-c4ccccc4F)nc4ncccc34)c2)cc1 [compound 78, 4-{5-[2-(2-Fluoro-phenyl)-[1,8]naphthyridin-4-yl]-pyridin-3-yl}-benzenesulfonamide] showed an IC50 (GST-ALK5) of under 0.1 µM and an IC50 [1] of 0.1 to 1 µM.
In the case of Fc1ccccc1-c1cc(-c2cncc(-n3cccn3)c2)c2cccnc2n1 [compound 79, 2-(2-Fluoro-phenyl)-4-(5-pyrazol-1-yl-pyridin-3-yl)-[1,8]naphthyridine], the IC50 (GST-ALK5) is reported as 0.1 to 1 µM and the IC50 [1] is reported as 1 to 10 µM.
With Fc1ccccc1-c1cc(-c2cncc(-c3cnc4[nH]ncc4c3)c2)c2cccnc2n1 [compound 80, 2-(2-Fluoro-phenyl)-4-[5-(1H-pyrazolo[3,4-b]pyridin-5-yl)-pyridin-3-yl]-[1,8]naphthyridine] the IC50 (GST-ALK5) was 0.1 to 1 µM and the IC50 [1] was 0.1 to 1 µM.
In the case of Fc1ccccc1-c1cc(-c2cncc(-c3ccc(N4CCNCC4)nc3)n2)c2cccnc2n1 [compound 81, 2-(2-Fluoro-phenyl)-4-[6-(6-piperazin-1-yl-pyridin-3-yl)-pyrazin-2-yl]-[1,8]naphthyridine], the IC50 (GST-ALK5) is reported as under 0.1 µM and the IC50 [1] is reported as 0.1 to 1 µM.

Source: patent US8912216B2, “Hetaryl-[1,8]naphthyridine derivatives” (Merck Patent GmbH, priority 2010, dated 2014)
